Results on 2 compounds are retold here after US7772218B2, “Synthesis of anti-estrogenic and other therapeutic steroids from 21-hydroxy-19-norpregna-4-en-3-one” (SRI International, priority 2000, dated 2010).

Counter-ions that a name gives are not always drawn.

In series [1] the test system is PC-3 cells. Kind of series: growth inhibition assay (MTT), androgen-independent human prostate cancer cells. Format: cell-based. Particulars: concentrations of 5 μM or higher, 7 days of treatment, 575 nm. On the procedure:
(§1) [drawing 32] was synthesized as described in Example 4 without methylation at the 7-position of the steroid nucleus. The compound was evaluated for its inhibitory effect on androgen-independent human prostate cancer cells, DU145 cells and PC-3 cells, in a standard in vitro androgen-independent human prostate cancer assay.
(§2) DU145 and PC-3 human prostate cancer cell lines were obtained from the American Type Culture Collection, Rockville, Md. Eagle's minimum essential medium, RPMI-1640 medium, fetal calf serum, nonessential amino acids, and sodium pyruvate were purchased from Sigma, St. Louis, Mo.
(§3) PC-3 cells were maintained in RPMI-1640 medium supplemented with 10% fetal calf serum (FCS) and DU145 cells in Eagle's minimum essential medium (MEM) supplemented with 10% FCS. 1% nonessential amino acids, and 1 mM pyruvate. All cells were cultured at 37° C. in a 5% CO2/ 95% air atmosphere in 100% humidity. […] After 7 days of treatment, viable cells in each well were measured using the MTT assay as described in “Cellular Proliferation Assay,” in Protocols and Applications, 3rd Edition (Promega Corporation). […]
(§4) The plate was kept at room temperature overnight and the blue color measured at 575 nm on an ELISA plate reader. Based on the optical density of samples treated with the test compound and that of the control, the inhibitory effect of SR 16312 was evaluated.

The subject of series [2] is DU145 cells. Described as above. Type of series: cell-based. Particulars: concentrations of 5 μM or higher, 7 days of treatment, 575 nm. As for the experimental part: as §1, §2, §3, §4
The conditions of series [3]: rats; cited from earlier work.
For series [4] the following is noted: rats; cited from earlier work. The source holds these as a separate data set.
Series [5] has as its system rat uterine tissue. Particulars: cited from earlier work.
For series [6] the following is noted: in vivo, cited from earlier work.
Series [7] deals with human uterine tissue. Conditions: cited from earlier work.
Series [8] concerns human breast tumor cells. Conditions: cited from earlier work.

A word on the inhibition: it is the change of the read-out against control, counted positive when it falls. Low values mean a response near the control, high ones a response far below the control. With `CCN(CC)Cc1ccc(OCC[C@H]2CCC3C4CCC5=CC(=O)CCC5C4CCC32C)c(OC)c1` (some centres unmarked) [SR 16312], the inhibition in series [1] and in series [2] was approximately 100% throughout.

As to `CCN(CC)Cc1ccc(OCC[C@H]2CCC3C4C(CCC32C)c2ccc(O)cc2C[C@H]4C)c(OC)c1` (stereo partly drawn) [SR 16234, 3-hydroxy-7α-methyl-21-[2′-methoxy-4′-(diethylaminomethyl)-phenoxy]-19-norpregna-1,3,5(10)triene citrate], in series [3], the “high-density lipoprotein (HDL) cholesterol levels” value is reported as “increased” and the “low-density lipoprotein (LDL) cholesterol levels” value is “lowered”. Also, the “agonist-estrogenic activity in the skeletal system” value in series [4] is “maintenance of bone and prevention of bone loss”. Besides, in series [5], the anti-uterotrophic antagonist activity result is listed as “complete”. The oral bioavailability entry in series [6] (po) is recorded as “good”. In series [6], the absorption result is “good” and the half-life entry is recorded as “good”. The anti-uterotrophic antagonist activity entry in series [7] was “complete”. For the same compound, the antagonist-antiestrogenic activity entry in series [8] was “complete”.
